Paper PMC8691750, “Euphorbia Factor L2 ameliorates the Progression of K/BxN Serum-Induced Arthritis by Blocking TLR7 Mediated IRAK4/IKKβ/IRF5 and NF-kB Signaling Pathways” (Frontiers in Pharmacology, 2021)

Tests used:
[1] = tested on: TLR7 (R837) / TLR3 (poly:IC) induced cytokine production in RAW264.7 cells; assay: ELISA of IL-1β and IL-6 in supernatant of R837 and/or poly:IC stimulated RAW264.7 cells; assay type: cell-based, mouse
Description: RAW264.7 cells (5×10^5/ml), BMDMs (5×10^5/ml) and PBMCs (2×10^6/ml) were plated in 96-well plates and incubated overnight. […] For the anti-inflammatory molecular mechanism study, RAW264.7 cells (5×10^5/ml) were plated in 96-well plates and stimulated with R837 (20 μg/ml) with or without the addition of NF-κB inhibitor (JSH-23, […]) for 24 h. After 24 h, the culture supernatant was collected for cytokines measurements.
(§1) IL-4, IL-17A and TNF-α in sera from different group mice were measured using CBA Multiplex kit (BD, United States). The concentrations of IL-1β and IL-6 in serum or supernatant were detected by ELISA Kit (MULTI SCIENCES, China) according to the manufacturers’ instructions.

[2] = tested on: TLR7 (R837) induced cytokine production in PBMCs; assay: ELISA of IL-1β and IL-6 in supernatant of R837 stimulated PBMCs; assay type: cell-based, human; settings: R837-stimulated human PBMCs
Description: RAW264.7 cells, a mouse macrophage cell line, were cultured in DMEM medium containing 10% fetal bovine serum (FBS), 1% penicillin-streptomycin and maintained at 37 °C in 5% CO2 humidified air. Bone marrow-derived macrophages (BMDMs) generation was performed as following description. In brief, bone marrow cells were harvested from tibias and femurs of C57BL/6 mice and differentiated for 7 days in DMEM medium supplemented with 10% FBS, 1% penicillin-streptomycin and 50 ng/ml M-CSF. For human peripheral blood mononuclear cells (PBMCs) preparation, 5 ml peripheral venous blood was obtained from healthy donors in West China Hospital. PBMCs were isolated with Human Lymphocyte Separation Medium (LTS1077, Tian Jing, China) according to the manufacturer’s instructions. The experimental protocols were performed according to the approved guidelines established by the Institutional Human Research Subject Protection Committee of the Ethics Committee of West China Hospital, Sichuan University, China.
RAW264.7 cells (5×10^5/ml), BMDMs (5×10^5/ml) and PBMCs (2×10^6/ml) were plated in 96-well plates and incubated overnight. […]
as §1

[3] = tested on: TLR7-mediated NF-κB signaling pathway (IKKα/β, IκBα, p65); assay: Western blot, NF-κB pathway in R837-stimulated RAW264.7 cells; assay type: cell-based, mouse; settings: R837-stimulated RAW264.7
Description: RAW264.7 cells (2×10^6 cells/well) were plated into 6-well plates and then incubated at 37°C in 5% CO2 for 24 h. After incubated with various concentrations of EFL2 (1, 5 and 10 µM) for 1 h, cells were then stimulated by R837 (20 μg/ml) for 30 min. Cell lysates were prepared by direct lysis in 20 µL IP buffer (Beyotime Biotechnology, Shanghai, China). After obtaining the whole cell extracts, the cytosolic and nuclear were seperated using Nuclear and Cytoplasmic Protein Extraction Kit (Beyotime Biotechnology, Shanghai, China). BCA Protein Assay Kit (Beyotime Biotechnology, Nantong, China) was applied to determine the protein concentrations. The bands corresponding to p- IKKα/β, IKKα/β, p-IκBα, IκBα, p-p65, p65, p-IRAK4, IRAK4, p-IKKβ, IKKβ, p-IRF5, IRF5, β-actin and Lamin B were visualized using a Western Blot Detection Chemiluminescence Kit (Merck). Protein extracted from the total lysates/cytoplasm and nucleus was quantified in relation to β-actin and Lamin B bands, respectively.
The antibodies used in the experiments were as follows: rabbit anti-mouse IKKα/β polyclonal antibody (1:1,000, Abways, China), rabbit anti-mouse IκBα polyclonal antibody (1:1,000, Abgent, China), rabbit anti-mouse p65 polyclonal antibody (1:1,000, Abgent, China), rabbit anti-mouse phosphorylated IKKα (Ser176)/β (Ser177) (1:1,000, Abways, China), rabbit anti-mouse phosphorylated IκBα (1:1,000, Abcam, United States), rabbit anti-mouse phosphorylated p65 (1:1,000, Abcam, United States), rabbit anti-mouse IRAK4 polyclonal antibody (1:1,000, Proteintech, United States), rabbit anti-mouse phosphorylated IRAK4 (Thr345/Ser346) (1:1,000, Affinity, United States), rabbit anti-mouse IKKβ polyclonal antibody (1:1,000, Abbkine, United States), rabbit anti-mouse phosphorylated IKKβ (Ser177) (1:1,000, Abways, China), rabbit anti-mouse IRF5 polyclonal antibody (1:1,000, Immunoway, United States), rabbit anti-mouse phosphorylated IRF5 (Ser437) (1:1,000, Affinity, United States), anti-mouse actin monoclonal antibody (1:20,000, Transgen, China) and rabbit anti-mouse LaminB monoclonal antibody (1:5,000, Abways, China).

C=C1C(OC(=O)c2ccccc2)CC2C(C=C(C)C(=O)C3(OC(C)=O)CC(C)C(OC(=O)c4ccccc4)C3C1OC(C)=O)C2(C)C (stereo not drawn) [EFL2, Euphorbia factor L2]
inhibitory ability on IL-1β and IL-6 production compared to JSH-23 ([1]; R837-stimulated RAW264.7, EFL2 10 μM): stronger inhibitory ability
IL-6 production ([1]; R837-stimulated RAW264.7, EFL2 0.1-10 μM): dose-dependently reduced
IL-1β secretion ([1]; R837-stimulated RAW264.7, EFL2 at 0.1 μM): effectively inhibit
levels of IL-1β and IL-6 in the supernatant ([1]; RAW264.7 co-stimulated by poly (I:C) and R837, various concentrations of EFL2): to different expent decreased
suppressive effect on IL-1β production compared with IL-6 [2]: prior to that on IL-6
IKKα/β phosphorylation ([3]; EFL2 1, 5, 10 μM): effectively inhibited
IκB-α phosphorylation ([3]; EFL2 1, 5, 10 μM): effectively inhibited
p65 phosphorylation ([3]; EFL2 1, 5, 10 μM): effectively inhibited
NF-κB subunit p65 translocation activity ([3]; EFL2, also immunofluorescence): significantly suppressed
